Experimental data as given in patent US10131652B2, “Pyrimidinyloxy benzene derivatives as herbicides” (E. I. DU PONT DE NEMOURS AND COMPANY, priority 2014, dated 2018).

Tests used:
Format in all cases: in vivo
[1] = system: ragweed (common ragweed, Ambrosia elatior); test: Test B pre-/postemergence plant response
In short: (§1)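 Ratings reflect visual injury versus untreated controls, from 0 for no effect to 100 for complete control, assessed roughly 10 days after treatment. Formulation: non-phytotoxic solvent mix with surfactant; pre- and postemergence sprays on plants grown in loam soil and sand.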

[2] = system: Italian ryegrass (Lolium multiflorum); test: Test B pre-/postemergence plant response
In short: as §1

kochia (Kochia scoparia) = test: Test B pre-/postemergence plant response
In short: as §1

[3] = system: barnyardgrass (Echinochloa crus-galli); test: Test D pre-/postemergence plant response; details: Postemergence; for Plant response rating, Barnyardgrass: scale 0 to 100, 0 no effect, 100 complete control
In short: (§2)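 Pre-/post-emergence greenhouse test. Pre: seeded loam+sand, sprayed same day. Post: 1–4 leaf plants (2–18 cm), peat/vermiculite mix. Formulation: non-phytotoxic solvent + surfactant. Scored visually d13–15, 0–100 vs control.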

[4] = system: galium (catchweed bedstraw, Galium aparine); test: Test D pre-/postemergence plant response; details: Postemergence; for Plant response rating, Galium: scale 0 to 100, 0 no effect, 100 complete control
In short: as §2

[5] = system: ragweed (common ragweed, Ambrosia elatior); test: Test D pre-/postemergence plant response; details: Postemergence
In short: as §2

[6] = system: large (Lg) crabgrass (Digitaria sanguinalis); test: Test D pre-/postemergence plant response; details: Postemergence; for Plant response rating, Crabgrass, Large: scale 0 to 100, 0 no effect, 100 complete control
In short: as §2

[7] = system: Italian ryegrass (Lolium multiflorum); test: Test D pre-/postemergence plant response; details: Postemergence
In short: as §2

[8] = system: pigweed (Amaranthus retroflexus); test: Test D pre-/postemergence plant response; details: Postemergence
In short: as §2

[9] = system: yellow nutsedge (Cyperus esculentus); test: Test D pre-/postemergence plant response; details: Postemergence
In short: as §2

[10] = system: oilseed rape (Brassica napus); test: Test D pre-/postemergence plant response; details: Postemergence
In short: as §2

[11] = system: blackgrass (Alopecurus myosuroides); test: Test D pre-/postemergence plant response; details: Postemergence; for Plant response rating, Blackgrass: scale 0 to 100, 0 no effect, 100 complete control
In short: as §2

[12] = system: giant foxtail (Setaria faberii); test: Test D pre-/postemergence plant response; details: Postemergence; for Plant response rating, Foxtail, Giant: scale 0 to 100, 0 no effect, 100 complete control
In short: as §2

corn (Zea mays) = test: Test D pre-/postemergence plant response; details: Postemergence; for Plant response rating, Corn: scale 0 to 100, 0 no effect, 100 complete control
In short: as §2

[13] = 31 g ai/ha, Preemergence, 0 to 100 scale where 0 is no effect and 100 is complete control
[14] = 125 g ai/ha, postemergence, 0 to 100 scale, 0 no effect, 100 complete control
[15] = Postemergence, 31 g ai/ha, 0 to 100 scale (0 no effect, 100 complete control)
[16] = Preemergence, 125 g ai/ha, 0 to 100 scale (0 no effect, 100 complete control)
[17] = 31 g ai/ha, scale 0 to 100 (0 no effect, 100 complete control)
[18] = 62 g ai/ha, scale 0 to 100, 0 no effect, 100 complete control
[19] = 125 g ai/ha, scale 0 to 100, 0 no effect, 100 complete control

CC(F)(F)c1cc(-c2ccccc2Oc2ncc(Cl)cn2)no1 [Compound 220]
Plant response rating, Ragweed [1, 13]: 0 | Plant response rating, Ragweed [1, 14]: 10 | Plant response rating, Ragweed [1, 15]: 0 | Ragweed plant response rating [1, 16]: 10 | Plant response rating, Ryegrass, Italian [2, 13]: 0 | Plant response rating, Ryegrass, Italian [2, 14]: 40 | Plant response rating, Ryegrass, Italian [2, 15]: 0 | Ryegrass, Italian plant response rating [2, 16]: 30 | Plant response rating, Kochia (kochia (Kochia scoparia); [13]): 50 | Plant response rating, Kochia (kochia (Kochia scoparia); [14]): 100 | Plant response rating, Kochia (kochia (Kochia scoparia); [15]): 90 | Kochia plant response rating (kochia (Kochia scoparia); [16]): 90 | Plant response rating (scale 0 to 100), Barnyardgrass ([3]; 2 g ai/ha): 5 | Plant response rating (scale 0 to 100), Barnyardgrass ([3]; 4 g ai/ha): 5 | Plant response rating (scale 0 to 100), Barnyardgrass ([3]; 8 g ai/ha): 10 | Plant response rating (scale 0 to 100), Barnyardgrass ([3]; 16 g ai/ha): 10 | Plant response rating (scale 0 to 100), Galium ([4]; 2 g ai/ha): 50 | Plant response rating (scale 0 to 100), Galium ([4]; 4 g ai/ha): 50 | Plant response rating (scale 0 to 100), Galium ([4]; 8 g ai/ha): 55 | Plant response rating (scale 0 to 100), Galium ([4]; 16 g ai/ha): 60 | Plant response rating (scale 0 to 100), Ragweed ([5]; 2 g ai/ha): 5 | Plant response rating (scale 0 to 100), Ragweed ([5]; 4 g ai/ha): 15 | Plant response rating (scale 0 to 100), Ragweed ([5]; 8 g ai/ha): 15 | Plant response rating (scale 0 to 100), Ragweed ([5]; 16 g ai/ha): 25 | Plant response rating (scale 0 to 100), Crabgrass, Large ([6]; 2 g ai/ha): 5 | Plant response rating (scale 0 to 100), Crabgrass, Large ([6]; 4 g ai/ha): 5 | Plant response rating (scale 0 to 100), Crabgrass, Large ([6]; 8 g ai/ha): 5 | Plant response rating (scale 0 to 100), Crabgrass, Large ([6]; 16 g ai/ha): 15 | Plant response rating (scale 0 to 100), Ryegrass, Italian ([7]; 2 g ai/ha): 0 | Plant response rating (scale 0 to 100), Ryegrass, Italian ([7]; 4 g ai/ha): 0 | Plant response rating (scale 0 to 100), Ryegrass, Italian ([7]; 8 g ai/ha): 0 | Plant response rating (scale 0 to 100), Ryegrass, Italian ([7]; 16 g ai/ha): 0 | Plant response rating (scale 0 to 100), Pigweed ([8]; 2 g ai/ha): 70 | Plant response rating (scale 0 to 100), Pigweed ([8]; 4 g ai/ha): 75 | Plant response rating (scale 0 to 100), Pigweed ([8]; 8 g ai/ha): 80 | Plant response rating (scale 0 to 100), Pigweed ([8]; 16 g ai/ha): 85 | Plant response rating (scale 0 to 100), Nutsedge, Yellow ([9]; 2 g ai/ha): 0 | Plant response rating (scale 0 to 100), Nutsedge, Yellow ([9]; 4 g ai/ha): 0 | Plant response rating (scale 0 to 100), Nutsedge, Yellow ([9]; 8 g ai/ha): 0 | Plant response rating (scale 0 to 100), Nutsedge, Yellow ([9]; 16 g ai/ha): 5 | Plant response rating (scale 0 to 100), Oilseed Rape ([10]; 2 g ai/ha): 0 | Plant response rating (scale 0 to 100), Oilseed Rape ([10]; 4 g ai/ha): 5 | Plant response rating (scale 0 to 100), Oilseed Rape ([10]; 8 g ai/ha): 5 | Plant response rating (scale 0 to 100), Oilseed Rape ([10]; 16 g ai/ha): 10 | Plant response rating (scale 0 to 100), Blackgrass ([11]; 2 g ai/ha): 0 | Plant response rating (scale 0 to 100), Blackgrass ([11]; 4 g ai/ha): 0 | Plant response rating (scale 0 to 100), Blackgrass ([11]; 8 g ai/ha): 0 | Plant response rating (scale 0 to 100), Blackgrass ([11]; 16 g ai/ha): 5 | Plant response rating (scale 0 to 100), Foxtail, Giant ([12]; 2 g ai/ha): 0 | Plant response rating (scale 0 to 100), Foxtail, Giant ([12]; 4 g ai/ha): 5 | Plant response rating (scale 0 to 100), Foxtail, Giant ([12]; 8 g ai/ha): 5 | Plant response rating (scale 0 to 100), Foxtail, Giant ([12]; 16 g ai/ha): 5 | Plant response rating (scale 0 to 100), Corn (corn (Zea mays); 2 g ai/ha): 0 | Plant response rating (scale 0 to 100), Corn (corn (Zea mays); 4 g ai/ha): 5 | Plant response rating (scale 0 to 100), Corn (corn (Zea mays); 8 g ai/ha): 5 | Plant response rating (scale 0 to 100), Corn (corn (Zea mays); 16 g ai/ha): 5

Fc1ccc(Oc2ncc(Cl)cn2)c(-c2cc(C(F)(Cl)Cl)on2)c1 [Compound 221]
Plant response rating, Ragweed [1, 13]: 0 | Plant response rating, Ragweed [1, 14]: 50 | Plant response rating, Ragweed [1, 15]: 10 | Ragweed plant response rating [1, 16]: 0 | Plant response rating, Ryegrass, Italian [2, 13]: 20 | Plant response rating, Ryegrass, Italian [2, 14]: 40 | Plant response rating, Ryegrass, Italian [2, 15]: 0 | Ryegrass, Italian plant response rating [2, 16]: 40 | Plant response rating, Kochia (kochia (Kochia scoparia); [13]): 50 | Plant response rating, Kochia (kochia (Kochia scoparia); [14]): 100 | Plant response rating, Kochia (kochia (Kochia scoparia); [15]): 80 | Kochia plant response rating (kochia (Kochia scoparia); [16]): 70 | Plant response rating (scale 0 to 100), Barnyardgrass ([3]; 16 g ai/ha): 0 | Barnyardgrass plant response rating [3, 17]: 5 | Plant response rating, Barnyardgrass ([3]; 62 g ai/ha): 5 | Plant response rating, Barnyardgrass ([3]; 125 g ai/ha): 10 | Plant response rating (scale 0 to 100), Galium ([4]; 16 g ai/ha): 80 | Galium plant response rating [4, 17]: 80 | Plant response rating, Galium ([4]; 62 g ai/ha): 100 | Plant response rating, Galium ([4]; 125 g ai/ha): 100 | Plant response rating (scale 0 to 100), Ragweed ([5]; 16 g ai/ha): 35 | Ragweed plant response rating [5, 17]: 50 | Ragweed plant response rating [5, 18]: 45 | Plant response rating, Ragweed [5, 19]: 75 | Plant response rating (scale 0 to 100), Crabgrass, Large ([6]; 16 g ai/ha): 10 | Crabgrass, Large plant response rating [6, 17]: 10 | Plant response rating, Crabgrass, Large ([6]; 62 g ai/ha): 25 | Plant response rating, Crabgrass, Large ([6]; 125 g ai/ha): 30 | Plant response rating (scale 0 to 100), Ryegrass, Italian ([7]; 16 g ai/ha): 5 | Ryegrass, Italian plant response rating [7, 17]: 5 | Ryegrass, Italian plant response rating [7, 18]: 20 | Plant response rating, Ryegrass, Italian [7, 19]: 10 | Plant response rating (scale 0 to 100), Pigweed ([8]; 16 g ai/ha): 95 | Pigweed plant response rating [8, 17]: 95 | Pigweed plant response rating [8, 18]: 98 | Plant response rating, Pigweed [8, 19]: 100 | Plant response rating (scale 0 to 100), Nutsedge, Yellow ([9]; 16 g ai/ha): 5 | Nutsedge, Yellow plant response rating [9, 17]: 5 | Nutsedge, Yellow plant response rating [9, 18]: 5 | Plant response rating, Nutsedge, Yellow [9, 19]: 10 | Plant response rating (scale 0 to 100), Oilseed Rape ([10]; 16 g ai/ha): 70 | Oilseed Rape plant response rating [10, 17]: 70 | Oilseed Rape plant response rating [10, 18]: 90 | Plant response rating, Oilseed Rape [10, 19]: 90 | Plant response rating (scale 0 to 100), Blackgrass ([11]; 16 g ai/ha): 5 | Blackgrass plant response rating [11, 17]: 10 | Plant response rating, Blackgrass ([11]; 62 g ai/ha): 5 | Plant response rating, Blackgrass ([11]; 125 g ai/ha): 40 | Plant response rating (scale 0 to 100), Foxtail, Giant ([12]; 16 g ai/ha): 35 | Foxtail, Giant plant response rating [12, 17]: 5 | Plant response rating, Foxtail, Giant ([12]; 62 g ai/ha): 5 | Plant response rating, Foxtail, Giant ([12]; 125 g ai/ha): 35 | Plant response rating (scale 0 to 100), Corn (corn (Zea mays); 16 g ai/ha): 0 | Corn plant response rating (corn (Zea mays); [17]): 0 | Plant response rating, Corn (corn (Zea mays); 62 g ai/ha): 5 | Plant response rating, Corn (corn (Zea mays); 125 g ai/ha): 10
